Article PMC12621183 (Journal of Medicinal Chemistry, 2025)
Entries after “also recorded” stand apart in the source; their conditions may differ. Read-outs that look alike come from different tables or passages of the source.

Legend:
recombinant ABL1 kinase = recombinant ABL1 kinase (Homo sapiens, UniProt P00519); assay: ABL1 kinase assay (ADP-Glo); assay type: biochemical
Method: Kinase inhibition was assessed using luminescent ADP-Glo–based assays. […] No-enzyme and no-compound reactions served as 0% and 100% activity controls, respectively. Luminescence was quantified using a Tecan Spark plate reader, and kinase activity or inhibition was calculated relative to controls.

K562/DOX cells [1] = assay: cells; assay type: cell-based
Method: (§1) K562 wild-type, K562/DOX, OCI-AML3, HaCaT and healthy B cell cytotoxicity screening. Healthy B-lymphocytes were obtained from healthy donor blood samples using density gradient centrifugation with Histopaque.
(§2) All cells were maintained at 37 °C in atmospheric conditions of 5% CO2. Cytotoxicity screening was carried out in triplicate with these cells at a cell density of 0.5 × 10^6 cells/mL. Cells were treated with test compounds at a range of concentrations to establish LC50 values. Cells were incubated with the compounds for 72 h before being harvested by centrifugation. Subsequently, cells were labeled with Annexin V and 7-AAD (bioscience) in accordance with the manufacturer’s instructions. Following staining with FITC-labeled annexin V and 7-AAD, samples were analyzed using CytExpert software on a CytoFLEX LX flow cytometer (Beckman Coulter) to determine relative levels of cell death in the sample. Prism 10 software was then used to analyze the data to obtain dose–response curves.

K562 wild-type cells [2] = assay: cells; assay type: cell-based; settings: for CC50: K562 wild-type, 72 h, Annexin V/7-AAD, read-out: LC50 (the source's name); for apoptosis induction: K562 cells, 72-h exposure
Method: as §1, §2

K562/DOX cells [3] = assay: Effect of P-gp activity on apoptosis using verapamil (K562/DOX); assay type: cell-based, human; settings: for Fold change in LC50 (+/- verapamil): efflux factor; for effect of P-gp inhibition by verapamil on cytotoxicity: with and without verapamil
Method: Cells were seeded onto 96-well plates at a concentration of 0.5 × 10^6 cells/well in a final volume of 200 μL. […] After a 72-h incubation period with the test compounds, both with and without the inhibitor, apoptotic cells were evaluated using the Annexin V assay to determine the extent of apoptosis.

CSF-1R = biological target: T1, CSF-1R (Homo sapiens, UniProt P07333); assay: CSF-1R Chemi-Verse kinase assay; assay type: biochemical; settings: compared with imatinib
T1 construct: purchased Cambridge Biosciences (Chemi-Verse kinase assays)
Method: (§3) Reactions were set up under the supplier’s recommended conditions, with recombinant kinases (5 ng/μL final), peptide substrates, and ATP in kinase assay buffer. Test inhibitors or vehicle were added, and reactions were incubated at 30 °C for 45 min. ADP formation was quantified with ADP-Glo detection, and percent inhibition was determined relative to DMSO controls.

PDGFRα (D842Y) = biological target: T2, PDGFRα (D842Y) (Homo sapiens, UniProt P16234, D842Y); assay: PDGFRα (D842Y) Chemi-Verse kinase assay; assay type: biochemical; settings: compared with imatinib
T2 construct: purchased Cambridge Biosciences (Chemi-Verse kinase assays)
Method: as §3

K562/DOX cells [4] = assay: LC-MS/MS accumulation assay in P-gp-overexpressing K562/DOX cells; assay type: in vitro ADME, human; settings: for increase in intracellular concentration: K562/DOX relative to K562 wild-type; for intracellular accumulation (concentration): K562/DOX, 50 μM drug, 2 h; for higher intracellular concentration relative to imatinib: within K562/DOX cells
Method: (§4) K562 wild-type and K562/DOX cells were seeded in 6-well plates at a density of 1 × 10^6 cells per well in a final volume of 2 mL and cultured for 24 h at 37 °C in a humidified incubator with 5% CO2. The cells were then treated with 50 μM of the drug and incubated for 2 h. After incubation, the cells were harvested, washed with ice-cold phosphate-buffered saline (PBS), and pelleted. Intracellular drug was extracted by lysing the cells with 400 μL of methanol, aided by sonication. The lysates were centrifuged at 7200 rcf, and the supernatant was collected for analysis by LC-MS/MS. Drug quantification was performed using an external calibration method. Stock solutions of each compound were prepared in methanol and used to generate calibration standards in methanol/DMSO (70:30, %v/v). Experimental samples were diluted in the same solvent mixture prior to analysis.
(§5) Chromatographic separation was performed on a Shimadzu Nexera XR ultrahigh-performance liquid chromatography (UHPLC) system comprising two LC-20AD pumps, a DGC degasser, a SIL-30AC autosampler, a CBM-20A controller, and a column oven. The system was fitted with an Ascentis Express C18 column (5 cm × 2.1 mm, 2.7 μm particle size). Elution was performed with a binary solvent system: eluent A, 0.1% formic acid in water; eluent B, 0.1% formic acid in methanol. The gradient program was as follows: 5% B for 0.5 min, increased to 40% B over 3.5 min, increased to 95% B over 2 min, held at 95% B for 1.5 min, then returned to 5% B at 8 min and held for 3 min for re-equilibration. The mobile phase flow rate was 0.21 mL/min. The column oven was maintained at 40 °C and the autosampler at 10 °C.
(§6) The UHPLC system was coupled to a Shimadzu 8060 triple quadrupole mass spectrometer with an electrospray ionization (ESI) source operating in positive ion mode. […] Multiple reaction monitoring (MRM) transitions (Table S2) were used for quantification with a dwell time of 100 ms per transition. Data were normalized against standards prepared using the initial drug concentration in the lysis solution. Statistical significance of differences in intracellular accumulation between drugs and cell lines was assessed using the nonparametric Mann–Whitney test (n = 6).

[5] = as above; assay type: in vitro ADME, human; settings: human; K562 wild-type vs K562/DOX
Method: as §4, §5, §6

K562 wild-type cells [6] = assay: LC-MS/MS accumulation assay in K562 wild-type cells; assay type: in vitro ADME, human; settings: 50 μM drug, 2 h
Method: as §4, with “analysis. […]” for “analysis.”
as §6, with “Data were normalized against standards prepared using the initial drug concentration in the lysis solution.” left out

HaCaT cells = assay type: cell-based; settings: ratio of IC50 in HaCaT cells to LC50 in K562 wild-type
Method: HaCaT cells were seeded in a 96-well plate in DMEM at a density of 3 × 10^3 cells/well and incubated for 24 h at 37 °C in a humidified incubator with 5% CO2. The cells were then treated with a series of drug concentrations (0.1–100 μM) and incubated for a further 72 h at 37 °C. After treatment, the media in each well, including control wells, was replaced with MTT reagent (0.1 mg/well in media) and incubated for 4 h at 37 °C. Following incubation, the MTT reagent was carefully removed, and 200 μL of DMSO was added to each well to solubilize the formazan crystals. The plate was shaken for 10 min, and the optical density (OD) was measured at 570 nm using a microplate reader.

healthy B-lymphocytes = assay: Cytotoxicity in healthy B-lymphocytes (Annexin V/7-AAD); assay type: cell-based; settings: concentrations up to 100 μM
Method: K562 wild-type, K562/DOX, OCI-AML3, HaCaT and healthy B cell cytotoxicity screening. Healthy B-lymphocytes were obtained from healthy donor blood samples using density gradient centrifugation with Histopaque. Informed consent was obtained from all human participants in this study and experiments were performed in accordance with ethical approval granted by the local research ethics committee (17/SW/0263). […]
All cells were maintained at 37 °C in atmospheric conditions of 5% CO2. […] Following staining with FITC-labeled annexin V and 7-AAD, samples were analyzed using CytExpert software on a CytoFLEX LX flow cytometer (Beckman Coulter) to determine relative levels of cell death in the sample. […]

[7] = Homo sapiens, K562, 72 h, read-out: LC50, K562/DOX, 72 h, Annexin V/7-AAD

recombinant ABL1 kinase, sequence (P00519 whole entry): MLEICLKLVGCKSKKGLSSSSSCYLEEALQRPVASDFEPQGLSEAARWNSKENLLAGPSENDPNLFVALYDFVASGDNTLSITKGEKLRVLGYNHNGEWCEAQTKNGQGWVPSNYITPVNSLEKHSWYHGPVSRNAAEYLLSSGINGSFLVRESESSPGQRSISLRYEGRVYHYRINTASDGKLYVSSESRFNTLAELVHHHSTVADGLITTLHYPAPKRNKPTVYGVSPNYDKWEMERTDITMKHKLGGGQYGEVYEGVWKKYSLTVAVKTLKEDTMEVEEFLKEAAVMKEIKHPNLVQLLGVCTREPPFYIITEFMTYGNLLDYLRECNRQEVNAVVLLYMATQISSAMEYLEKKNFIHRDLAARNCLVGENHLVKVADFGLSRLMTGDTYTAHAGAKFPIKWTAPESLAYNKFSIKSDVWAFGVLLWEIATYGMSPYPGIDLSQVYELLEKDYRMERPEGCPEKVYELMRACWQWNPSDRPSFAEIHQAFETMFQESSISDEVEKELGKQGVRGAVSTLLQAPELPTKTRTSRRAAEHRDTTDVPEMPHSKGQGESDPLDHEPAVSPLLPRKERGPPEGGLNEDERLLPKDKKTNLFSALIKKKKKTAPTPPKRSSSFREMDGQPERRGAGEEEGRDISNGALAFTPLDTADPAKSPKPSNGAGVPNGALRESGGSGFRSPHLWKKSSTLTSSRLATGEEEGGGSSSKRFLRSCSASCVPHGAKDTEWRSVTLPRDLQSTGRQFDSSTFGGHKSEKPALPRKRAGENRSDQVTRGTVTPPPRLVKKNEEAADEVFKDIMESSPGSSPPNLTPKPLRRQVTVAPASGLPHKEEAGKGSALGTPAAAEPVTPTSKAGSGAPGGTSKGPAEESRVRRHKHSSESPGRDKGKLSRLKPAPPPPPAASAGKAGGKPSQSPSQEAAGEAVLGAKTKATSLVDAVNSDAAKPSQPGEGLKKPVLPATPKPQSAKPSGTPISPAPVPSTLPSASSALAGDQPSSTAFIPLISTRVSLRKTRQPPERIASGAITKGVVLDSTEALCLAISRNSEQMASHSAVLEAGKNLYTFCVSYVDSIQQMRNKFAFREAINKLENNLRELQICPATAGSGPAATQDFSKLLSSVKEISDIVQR
T2 sequence (P16234 24-1089 D842Y): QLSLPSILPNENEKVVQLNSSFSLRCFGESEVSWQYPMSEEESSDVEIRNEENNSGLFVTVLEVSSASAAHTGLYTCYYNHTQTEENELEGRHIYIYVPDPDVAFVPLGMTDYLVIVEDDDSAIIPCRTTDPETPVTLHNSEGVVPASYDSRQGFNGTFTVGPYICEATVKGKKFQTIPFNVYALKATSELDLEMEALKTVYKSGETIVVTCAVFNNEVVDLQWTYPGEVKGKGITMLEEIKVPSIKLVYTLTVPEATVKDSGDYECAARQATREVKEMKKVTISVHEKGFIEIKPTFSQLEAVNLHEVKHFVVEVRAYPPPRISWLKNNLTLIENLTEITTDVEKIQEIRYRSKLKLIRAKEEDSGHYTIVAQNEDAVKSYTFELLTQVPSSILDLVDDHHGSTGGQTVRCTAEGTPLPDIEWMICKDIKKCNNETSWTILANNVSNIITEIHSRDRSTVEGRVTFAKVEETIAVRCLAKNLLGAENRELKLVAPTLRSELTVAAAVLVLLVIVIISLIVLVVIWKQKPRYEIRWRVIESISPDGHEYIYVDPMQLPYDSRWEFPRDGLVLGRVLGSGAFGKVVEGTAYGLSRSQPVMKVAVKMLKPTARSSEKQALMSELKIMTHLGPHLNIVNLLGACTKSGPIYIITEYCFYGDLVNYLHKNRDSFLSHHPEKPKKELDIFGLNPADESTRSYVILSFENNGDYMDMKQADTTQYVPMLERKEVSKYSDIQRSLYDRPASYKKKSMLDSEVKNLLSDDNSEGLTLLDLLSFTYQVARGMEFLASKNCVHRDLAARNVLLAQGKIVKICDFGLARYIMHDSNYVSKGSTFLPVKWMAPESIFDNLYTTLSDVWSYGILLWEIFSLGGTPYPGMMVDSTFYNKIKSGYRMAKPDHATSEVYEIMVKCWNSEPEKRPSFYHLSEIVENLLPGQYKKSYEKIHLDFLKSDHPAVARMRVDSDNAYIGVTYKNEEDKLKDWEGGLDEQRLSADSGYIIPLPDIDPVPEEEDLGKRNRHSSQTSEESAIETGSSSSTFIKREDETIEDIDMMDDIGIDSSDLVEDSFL
T1 sequence (P07333 20-972): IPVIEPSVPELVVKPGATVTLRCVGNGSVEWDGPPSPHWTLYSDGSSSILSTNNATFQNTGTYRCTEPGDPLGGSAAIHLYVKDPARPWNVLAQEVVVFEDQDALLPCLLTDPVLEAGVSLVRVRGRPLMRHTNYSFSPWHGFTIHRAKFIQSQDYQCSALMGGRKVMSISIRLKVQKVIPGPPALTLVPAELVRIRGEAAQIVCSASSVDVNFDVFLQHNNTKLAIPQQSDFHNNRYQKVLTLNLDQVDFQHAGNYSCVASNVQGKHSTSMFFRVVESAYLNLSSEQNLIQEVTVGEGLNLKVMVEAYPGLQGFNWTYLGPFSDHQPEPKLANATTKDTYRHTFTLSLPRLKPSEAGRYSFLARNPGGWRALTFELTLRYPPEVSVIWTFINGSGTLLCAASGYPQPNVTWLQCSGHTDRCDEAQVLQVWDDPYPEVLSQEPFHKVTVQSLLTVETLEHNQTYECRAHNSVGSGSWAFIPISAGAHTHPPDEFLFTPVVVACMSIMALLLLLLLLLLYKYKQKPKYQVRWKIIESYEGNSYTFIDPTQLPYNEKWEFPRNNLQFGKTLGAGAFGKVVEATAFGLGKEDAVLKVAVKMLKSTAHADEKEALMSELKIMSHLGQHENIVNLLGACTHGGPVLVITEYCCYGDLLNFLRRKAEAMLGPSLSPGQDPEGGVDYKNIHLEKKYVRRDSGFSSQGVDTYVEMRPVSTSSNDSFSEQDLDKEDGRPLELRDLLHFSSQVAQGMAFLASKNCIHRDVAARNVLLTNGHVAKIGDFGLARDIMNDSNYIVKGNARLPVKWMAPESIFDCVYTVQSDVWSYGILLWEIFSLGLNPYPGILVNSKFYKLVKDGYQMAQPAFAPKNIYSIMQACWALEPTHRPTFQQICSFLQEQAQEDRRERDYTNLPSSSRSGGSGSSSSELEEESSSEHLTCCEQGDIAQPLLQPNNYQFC

Molecule	inhibition at 10 µM (recombinant ABL1 kinase; 10 μM, 40 min incubation) [%]	CC50 (K562/DOX cells [1]; [7]) [µM]	CC50 (K562 wild-type cells [2]; Homo sapiens, K562, 72 h) [µM]	apoptosis induction (K562 wild-type cells [2])	%Kinase inhibition (recombinant ABL1 kinase; 10 μM, 40 min incubation) [%]	CC50 (K562/DOX cells [1]; K562/DOX, 72 h, Annexin V/7-AAD, read-out: LC50 (the source's name)) [µM]	CC50 (K562 wild-type cells [2]) [µM]	Fold change in LC50 (+/- verapamil) (K562/DOX cells [3])	effect of P-gp inhibition by verapamil on cytotoxicity (K562/DOX cells [3])	inhibitory activity against CSF-1R (CSF-1R)	inhibitory activity against PDGFRα (D842Y) (PDGFRα (D842Y))	ABL1 inhibition (recombinant ABL1 kinase)	increase in intracellular concentration (K562/DOX cells [4]) [%]	intracellular accumulation (concentration) (K562/DOX cells [4]) [µg/mL]	higher intracellular concentration relative to imatinib (K562/DOX cells [4])	efflux ratio at 2 h, 50 μM [5]	intracellular accumulation (concentration) (K562 wild-type cells [6]) [µg/mL]	CC50 (K562/DOX cells [1]; human, 72 h) [µM]	Toxicity Index (IC50 HaCaT/LC50 K562) (HaCaT cells)	toxicity in nonmalignant B-lymphocytes (healthy B-lymphocytes)
Cc1ccc(NC(=O)c2ccc(CN3CCC(c4ccccc4)CC3)cc2)cc1Nc1nccc(-c2cccnc2)n1 [Compound 7]	37.7	> 50	> 50	inactive	–	–	–	–	–	–	–	–	–	–	–	–	–	–	–	–
Cc1ccc(NC(=O)c2ccc(CN3CCC(n4cnnc4)CC3)cc2)cc1Nc1nccc(-c2cccnc2)n1 [Compound 14, 4-((4-(4H-1,2,4-Triazol-4-yl)piperidin-1-yl)methyl)-N-(4-methyl-3-((4-(pyridin-3-yl)pyrimidin-2-yl)amino)phenyl)benzamide]	36.1	> 50	> 50	inactive	–	–	–	–	–	–	–	–	–	–	–	–	–	–	–	–
4-Methyl-3-((4-(pyridin-3-yl)pyrimidin-2-yl)amino)phenyl-4-((4-(pyrimidin-2-yl)piperidin-1-yl)methyl)benzamide [Compound 11]	–	–	–	induced apoptosis in a dose-dependent manner	26.55	> 50	24.2 ± 12.2	–	–	–	–	–	–	–	–	–	–	–	–	–
Cc1ccc(NC(=O)c2ccc(CN3CCC(n4ccnc4)CC3)cc2)cc1Nc1nccc(-c2cccnc2)n1 [Compound 13, 4-((4-(1H-Imidazol-1-yl)piperidin-1-yl)methyl)-N-(4-methyl-3-((4-(pyridin-3-yl)pyrimidin-2-yl)amino)phenyl)benzamide]	47.1	32.5 ± 14.5	18.2 ± 1.9	induced apoptosis in a dose-dependent manner	–	–	–	1.9	minimal changes; also recorded: reversal of resistance was not significant	–	–	–	–	–	–	–	–	–	–	–
Cc1ccc(NC(=O)c2ccc(CN3CCC(c4ccccn4)CC3)cc2)cc1Nc1nccc(-c2cccnc2)n1 [Compound 9]	32.2	20.3 ± 10.3	21.8 ± 11	induced apoptosis in a dose-dependent manner	–	–	21.8	4.1	reversal of resistance was not significant	broadly comparable to imatinib	broadly comparable to imatinib	relatively weak inhibition	14.4	26.73	~4.8 fold	0.87	23.36	20.3	–	–
Cc1ccc(NC(=O)c2ccc(CN3CCC(n4cccc4)CC3)cc2)cc1Nc1nccc(-c2cccnc2)n1 [Compound 12, 4-((4-(1H-Pyrrol-1-yl)piperidin-1-yl)methyl)-N-(4-methyl-3-((4-(pyridin-3-yl)pyrimidin-2-yl)amino)phenyl)benzamide]	47.4	–	> 50	inactive	–	–	–	–	–	–	–	–	–	–	–	–	–	–	–	–
Cc1ccc(NC(=O)c2ccc(CN3CCC(c4ccc(N)cc4)CC3)cc2)cc1Nc1nccc(-c2cccnc2)n1 [Compound 8, 4-((4-(4-Aminophenyl)piperidin-1-yl)methyl)-N-(4-methyl-3-((4-(23yridine-3-yl)pyrimidin-2-yl)amino)phenyl)benzamide]	40	5.29	2.29	induced apoptosis in a dose-dependent manner	–	–	–	1.3	minimal changes; also recorded: reversal of resistance was not significant	broadly comparable to imatinib	broadly comparable to imatinib	moderate inhibition	2.5	14.49	approximately 2.6 fold	0.98	14.14	–	3.4	No significant toxicity; also recorded: no significant cytotoxicity
Cc1ccc(NC(=O)c2ccc(CN3CCC(c4ccncc4)CC3)cc2)cc1Nc1nccc(-c2cccnc2)n1 [Compound 10, 4-Methyl-3-((4-(pyridin-3-yl)pyrimidin-2-yl)amino)phenyl-4-((4-(pyridin-4-yl)piperidin-1-yl)methyl)benzamide]	39.6	37.5 ± 10.1	> 50	inactive	–	–	–	–	–	–	–	–	–	–	–	–	–	37.5	–	–
